Laboratory results: patent publication US9510597B2, “Microbicidal composition” (Dow Global Technologies LLC, priority 2012, dated 2016)
Structures can show the parent of a compound that is named as a salt.

How the values were obtained:
Format in all cases: cell-based
[1] = system: Candida albicans (ATCC #10231); test: Minimum Inhibitory Concentration (MIC) synergy study, yeast; conditions: for MIC: Candida albicans; for Minimum Inhibitory Concentration (ppm) MBIT: C. albicans, MBIT alone (1:0) or MBIT portion of the mixture
Experimental: (§1) The synergism of the biocides combination of the present invention was determined using the method described by Kull, F. C, et. all in Applied Microbiology 9:538-541 (1961). […] In this invention, two different approaches of synergistic study were conducted. One synergistic study is determined based on the minimum inhibitory concentration (MIC), the lowest concentration of a biocide prevents the growth of tested microorganism under a specific set of conditions. The second study was based on three to four consecutive challenge testing. This test was conducted to take biocide mode of action and speed of kill into a consideration.
(§2) The microorganisms tested are Escherichia coli (E. coli, ATCC #8739), yeast, Candida albicans (c. albicans, ATCC #10231) and mold, Aspergillus niger (a. niger, ATCC #16404). The final concentration of microorganisms in the tested media is about 10^4 cfu/mL
(§3) MBIT synergy with a secondary biocide was determined by evaluating the minimum biocide or biocide blend concentration required to inhibit microbial growth. All studies were conducted using a 96 well microtiter plate format. For all studies, 200 μl of microbial growth media, containing various concentrations of MBIT alone, the secondary biocide alone, or combinations of both biocide chemistries, was added to individual wells of a microtiter plate. Specifically, Tryptic Soy Broth (TSB) was utilized for bacteria (E. coli, ATCC #8739), Yeast Malt Extract Broth (YMB) for yeast (Candida albicans, ATCC #10231) and Potato Dextrose Broth (PDB) for mold (Aspergillus niger, ATCC #16404). Test organisms, at a final concentration of 10^4 CFU/mL or 10^4 spores/mL, were applied to each well in parallel experiments to initiate the MIC evaluations. Growth medium containing no biocide was utilized as a control in each experimental setup to confirm the growth viability of each organism. Eight concentrations (2-fold dilutions) of each individual biocide were evaluated in the microbial growth inhibition studies in addition to the 64 possible combinations of these biocide concentrations. Evaluation of the individual biocide concentrations is required to achieve an inhibitory concentration end point for synergy index calculation. […] Individual wells were scored as growth or no growth based on visual organism growth turbidity.

[2] = system: Aspergillus niger (ATCC #16404); test: Minimum Inhibitory Concentration (MIC) synergy study, mold; conditions: for Minimum Inhibitory Concentration (ppm) MBIT: A. niger, MBIT alone (1:0) or MBIT portion of the mixture
Experimental: as §1, §2, §3

[3] = system: Escherichia coli (ATCC #8739); test: Minimum Inhibitory Concentration (MIC) synergy study, bacteria; conditions: for Minimum Inhibitory Concentration (ppm) MBIT: E. coli, MBIT alone (1:0) or MBIT portion of the mixture
Experimental: as §1, §2, §3

[4] = system: Aspergillus niger (ATCC #16404); test: Minimum Kill Concentration (MKC) repeated challenge test, mold
Experimental: as §1
(§4) MKC evaluations were utilized to determine the synergy of MBIT with the co-biocides DXN (6-Acetoxy-2,4-dimethyl-m-dioxane) and THNM (2-Hydroxymethyl-2-nitro-1,3-propanediol) due to the inability to evaluate these particular biocide chemistries in MIC evaluations. The following test methods were designed for the evaluation of the aforementioned synergistic combinations. The results can be found in Tables 7 and 8.
(§5) Testing began (day 0) by applying sterile water, supplemented with 2.0% potato dextrose broth, to each well of a 96-well microtiter plate. […] After 48-96 hours of incubation at 30° C., mold kill (to a maximum detection limit of 5×10^1 spores/mL) was visually determined by the presence or lack of turbidity within the PDB.

[5] = system: Escherichia coli (ATCC #8739); test: Minimum Kill Concentration (MKC) repeated challenge test, bacteria; conditions: for MIC: Escherichia coli; for Minimum Inhibitory Concentration (ppm) MBIT: MBIT alone (1:0) or MBIT portion of the mixture
Experimental: as §1, §4
Testing began (day 0) by applying sterile water, supplemented with 2.0% TSB, to each well of a 96-well microtiter plate. Various concentrations of MBIT alone, the co-biocide alone, or combinations of both biocide chemistries, were added to individual wells of the microtiter plate followed by addition of Escherichia coli (ATCC #8739) at a final concentration of 5×10^4 CFU/mL. Equivalent inoculations were applied on days 7, 14 and 21 of the study. To determine the extent of bacterial kill, an aliquot (20 μl) of each sample was taken on days 1, 7, 8, 14, 15, 21, 22 and transferred to tryptic soy broth (180 μl). After 48 hours of incubation at 30° C., bacterial kill (to a maximum detection limit of 5×10^1 CFU/mL) was visually determined by the presence or lack of turbidity within the TSB.

[6] = system: Candida albicans (ATCC #10231); test: Minimum Kill Concentration (MKC) repeated challenge test, yeast
Experimental: as §1, §4
as §5, with “yeast malt extract” for “potato dextrose”, “48” for “48-96”, “yeast” for “mold”, “CFU/mL)” for “spores/mL)”, “YMB.” for “PDB.”

Work on `CCCCCCCCCCCCNC(=N)N` [DDG, Dodecylguanidine hydrochloride] yielded an MIC ([1]; ATCC10231, read-out: Minimum Inhibitory Concentration (ppm) DDG) of 2000 µg/mL, an MIC ([2]; Aspergillus niger, ATCC16404, read-out: Minimum Inhibitory Concentration (ppm) DDG) of 750 µg/mL and an MIC ([3]; Escherichia coli, ATCC8739, read-out: Minimum Inhibitory Concentration (ppm) DDG) of 875 µg/mL.

For `CC(=O)OC1CC(C)OC(C)O1` (stereo not drawn) [DXN, 6-Acetoxy-2,4-dimethyl-m-dioxane], the MIC ([4]; Aspergillus niger, ATCC16404, 504 h, Table 7, kill of A. niger at Day 21, DXN alone (0:1) or DXN portion of the mixture, read-out: Minimum Inhibitory Concentration (ppm) DXN) was 750 µg/mL, the MIC ([5]; ATCC8739, 168 h, Table 7, kill of E. coli at day 7, DXN alone (0:1) or DXN portion of the mixture, read-out: Minimum Inhibitory Concentration (ppm) DXN) was 875 µg/mL and the MIC ([6]; Candida albicans, ATCC10231, 504 h, Table 7, kill of C. albicans at day 21, DXN alone (0:1) or DXN portion of the mixture, read-out: Minimum Inhibitory Concentration (ppm) DXN) was 2000 µg/mL.

With `Cn1sc2ccccc2c1=O` [MBIT, N-methyl-1,2-benzisothiazolin-3-one] the “Minimum Inhibitory Concentration (ppm) MBIT” value ([4]; Table 7, MBIT/DXN study, kill of A. niger at Day 21, MBIT alone (1:0) or MBIT portion of the mixture) was 10 ppm, the “Minimum Inhibitory Concentration (ppm) MBIT” value ([1]; Table 1, MBIT/DDG study) was 6.25 ppm and the “Minimum Inhibitory Concentration (ppm) MBIT” value ([1]; Table 2, MBIT/PHMB study) was 0.3125 ppm. The “Minimum Inhibitory Concentration (ppm) MBIT” value ([1]; Table 5, MBIT/Terbutryn study) was 3 ppm, the “Minimum Inhibitory Concentration (ppm) MBIT” value ([2]; Table 1, MBIT/DDG study) was 10 ppm and the “Minimum Inhibitory Concentration (ppm) MBIT” value ([2]; Table 3, MBIT/NaPT study) was 6.3 ppm. For the same compound, the “Minimum Inhibitory Concentration (ppm) MBIT” value ([2]; Table 4, MBIT/NaOPP study) was 6.3 ppm, the “Minimum Inhibitory Concentration (ppm) MBIT” value ([3]; Table 1, MBIT/DDG study) was 62.5 ppm and the “Minimum Inhibitory Concentration (ppm) MBIT” value ([3]; Table 2, MBIT/PHMB study) was 12.5 ppm. The “Minimum Inhibitory Concentration (ppm) MBIT” value ([3]; Table 3, MBIT/NaPT study) was 25 ppm, the “Minimum Inhibitory Concentration (ppm) MBIT” value ([5]; Table 7, MBIT/DXN study, kill of E. coli at day 7) was 62.5 ppm and the “Minimum Inhibitory Concentration (ppm) MBIT” value ([5]; Table 8, MBIT/THNM study, kill of E. coli at day 21) was 125 ppm. For the same compound, the “Minimum Inhibitory Concentration (ppm) MBIT” value ([6]; Table 7, MBIT/DXN study, kill of C. albicans at day 21, MBIT alone (1:0) or MBIT portion of the mixture) was 6.25 ppm.

With `[Na+].[O-]c1ccccc1-c1ccccc1` [NaOPP, sodium ortho-phenylphenate] the “Minimum Inhibitory Concentration (ppm) NaOPP” value ([2]; Table 4, A. niger, NaOPP alone (0:1) or NaOPP portion of the mixture) was 200 ppm.

In the case of `[Na+].[O-][n+]1ccccc1[S-]` [NaPT, Sodium pyrithione], the “Minimum Inhibitory Concentration (ppm) NaPT” value ([2]; Table 3, A. niger, NaPT alone (0:1) or NaPT portion of the mixture) is reported as 25 ppm and the “Minimum Inhibitory Concentration (ppm) NaPT” value ([3]; Table 3, E. coli, NaPT alone (0:1) or NaPT portion of the mixture) is reported as 2.5 ppm.

In the case of `O=[N+]([O-])C(CO)(CO)CO` [THNM, 2-Hydroxymethyl-2-nitro-1,3-propanediol], the MIC ([5]; ATCC8739, 504 h, Table 8, kill of E. coli at day 21, THNM alone (0:1) or value printed for the mixture, read-out: Minimum Inhibitory Concentration (ppm) THMN) is reported as 125 µg/mL.

`CCNc1nc(NC(C)(C)C)nc(SC)n1` [Terbutryn] was tested, and the MIC ([1]; ATCC10231, Table 5, C. albicans, Terbutryn alone (0:1) or Terbutryn portion of the mixture, read-out: Minimum Inhibitory Concentration (ppm) Terbutryn) was > 20000 µg/mL.
